The subject of experiment [1] is differentiated 3T3-L1 cells. As to the kind of experiment: Inhibition of isoproterenol-induced lipolysis by QRFP, and its antagonism by compounds, in an adipocyte cell line model (glycerol release). The settings on record: for IC50 of QRFP-26 (inhibition of isoproterenol-induced lipolysis), shifted in presence of compound: 100 nM isoproterenol; for effect on the inhibitory effect of QRFP on isoproterenol-induced lipolysis: compound at 10^−9 to 10^−7 M. It is filed as cell-based, mouse. How it is done: The effectiveness of compounds of the invention to antagonize the QRFP-induced inhibition of isoproterenol-induced lipolysis was investigated using an adipocyte cell line model.
Cells were then were maintained in DMEM with 10% FBS for 2 days before lipolysis study.
All the cellular assays were performed in triplicate for each time point if not otherwise specified.
Differentiated 3T3-L1 cells were first washed with DMEM and incubated with DMEM containing 200 nM adenosine for 1 h at 37° C. The incubation medium was then removed. The lipolysis was induced by incubating the cells with DMEM supplemented with 2% bovine serum albumin fatty acid free and adenosine deaminase (1 U/mL) containing 100 nM of isoproterenol for 90 min at 37° C. The incubation medium (600 μL) was collected for glycerol assay following triglyceride hydrolysis.
After the incubation period, the incubation medium (600 μL) was collected for free glycerol measurement.
To document the antagonistic effect of compounds of the invention on the antilipolytic effect of QRFP, the dose-response curve of QRFP was carried out as described above in presence of selected compounds of the invention at 10^−9 to 10^−7 M. To document the net effect of QRFP and selected compounds of the invention on lipolysis induced by isoproterenol as control, cells were incubated in absence of isoproterenol in presence of QRFP or selected compounds of the invention at 10^−6 M.
Glycerol released was calculated as μmol/mg of total protein.
Lipolysis index was calculated as: (μmol of glycerol released/mg of protein of sample minus μmol of glycerol released/mg of protein in basal condition)/(μmol of glycerol released/mg of protein induced by 100 nM of isoproterenol minus μmol of glycerol released/mg of protein of basal condition).

The test system of experiment [2] is C57BL/6 male mice fed a high-fat diet. As to the kind of experiment: Diet-induced obesity (DIO) in mice, subchronic s.c. treatment. It is filed as in vivo, mouse. Conditions: for Fat mass / Food efficiency / Lean mass / Σ Fat depots / Body weight gain / Cumulative food intake / Glucose / Insulin: 2 weeks; for Body weight gain / Cumulative food intake: difference day 35 vs day 21; for body weight gain (in words): two weeks of treatment; for Glucose / Insulin: plasma. How it is done:
The effectiveness of selected compounds of the invention, i.e. their subchronic effects, on the energy balance of mice rendered obese by a high-fat diet was investigated.
Adult C57BL/6 male mice were fed ad libitum with either chow or a high-fat diet (60% of the calorie content from fat) for 5 weeks.
C57BL/6 mice fed with a high-fat diet readily develop obesity and represent a widely used model for investigating human obesity.
One-third of the dose was injected in the morning and two-third in the evening.
Body weight and food intake were monitored every day during the experiment. Body composition (lean and fat mass) was assessed using dual energy x-ray absorptiometry (DEXA) on day 0, 13 and 27. Blood was also sampled at sacrifice for the determination of plasma glucose, insulin and triglycerides.

Experiment [3] concerns male C57BL/6J mice. Kind of experiment: Fasting-induced feeding behavior (food intake) of mice. Type of experiment: in vivo. Conditions: po.
Experiment [4] has as its system male C57BL/6J mice. The description is as above. It is filed as in vivo. The settings on record: oral dose 2 μmol per mouse, 30 min before food. Here is the method:
The effectiveness of selected compounds of the invention on fasting-induced feeding behavior of mice was investigated.
The experiments were performed according to Asakawa A et al. (Asakawa A et al., Gut 2003, 52: 947-952) with the following technical details:
Preparation of compounds of the invention: dissolved in dimethylsulfoxide (DMSO) and then diluted in distilled water (i.e. 0.5, 1 and 10% DMSO for 0.5, 1 and 2 μmol/mouse, respectively);
Preparation of reference substance (positive control) sibutramine: dissolved in distilled water;
Control substance (negative vehicle control): 10% DMSO in distilled water (compounds of the invention); distilled water (sibutramine);
Route of administration: p.o.;
Pretreatment time: 30 min before presenting the food to the animals;
Volume of administration: 0.5 ml/mouse;
Animals: male C57BL/6J mice;
Body weight range: 18.3-21.4 g

[5] abbreviates: 6 mg/kg per day and 24 mg/kg per day.
Where [6] appears, read: 20 min, read-out: change of food intake - compounds versus vehicle treated negative control, at 20 min.
The mark [7] stands for this setting: 1 h, read-out: change of food intake - compounds versus vehicle treated negative control, at 1 h.
Setting [8] is: 2 h, read-out: change of food intake - compounds versus vehicle treated negative control, at 2 h.
Where [9] appears, read: 4 h, read-out: change of food intake - compounds versus vehicle treated negative control, at 4 h.

The source of these data is patent US20090042905A1, “TRIAZOLE DERIVATIVES AS LIGANDS OF G-PROTEIN COUPLED RECEPTORS” (AETERNA ZENTARIS GmbH, priority 2007, published 2009).

Each structure is given as a SMILES string. Where two headings read alike, the source gives them in different places.

Regarding `COc1ccc(Cn2c(CCc3ccccc3)nnc2[C@@H](Cc2c[nH]c3ccccc23)NC(=O)c2ccccn2)cc1` [Compound 79, (R)-N-(1-(4-(4-methoxybenzyl)-5-phenethyl-4H-1,2,4-triazol-3-yl)-2-(1H-indol-3-yl)ethyl)picolinamide], the “IC50 of QRFP-26 (inhibition of isoproterenol-induced lipolysis), shifted in presence of compound” value in experiment [1] (compound at 10^−7 M) was determined as 124.4 nM; in experiment [1] (compound at 10^−9 M), 2.829 nM. Also, the “effect on the inhibitory effect of QRFP on isoproterenol-induced lipolysis” value in experiment [1] is reported as “antagonist effect”.
Take `CC(C)(N)C(=O)N[C@H](Cc1c[nH]c2ccccc12)c1nnc(CCCc2c[nH]c3ccccc23)n1Cc1ccccc1` [Compound 9, (R)-N-(1-(5-(3-(1H-indol-3-yl)propyl)-4-benzyl-4H-1,2,4-triazol-3-yl)-2-(1H-indol-3-yl)ethyl)-2-amino-2-methylpropanamide]: in experiment [2] (1.5 mg/kg per day s.c.), the Fat mass is on record as 7.9 g, the Food efficiency was 1.30 mg/kJ, the Lean mass worked out at 20.2 g and the “Σ Fat depots” value was 1137 mg. Further, in experiment [2] (1.5 mg/kg per day s.c.), the Body weight gain came to 1.03 g, the Cumulative food intake is 793 kJ, the Glucose worked out at 14.9 mmol/L and the Insulin amounted to 63.8 pmol/L. Moreover, in experiment [2] (setting [5]), the “size of the fat depots (in words)” value is “reduced” and the “body weight gain (in words)” value is “significantly decreased”. Besides, in experiment [2] (6.0 mg/kg per day s.c.), the Fat mass is on record as 5.8 g, the Food efficiency is reported as 0.25 mg/kJ, the Lean mass worked out at 21.2 g and the “Σ Fat depots” value came out at 791 mg. In experiment [2] (6.0 mg/kg per day s.c.), the Body weight gain was 0.20 g, the Cumulative food intake is 809 kJ, the Glucose is 15.6 mmol/L and the Insulin worked out at 57.4 pmol/L. In experiment [2] (24 mg/kg per day s.c.), the Fat mass worked out at 5.7 g, the Food efficiency was -0.68 mg/kJ, the Lean mass turned out to be 20.5 g and the “Σ Fat depots” value turned out to be 792 mg. Further, in experiment [2] (24 mg/kg per day s.c.), the Body weight gain was -0.54 g, the Cumulative food intake was determined as 790 kJ, the Glucose was 13.1 mmol/L and the Insulin came to 52.0 pmol/L.
Turning to `CC(C)(N)C(=O)N[C@H](Cc1c[nH]c2ccccc12)c1nnc(Cc2ccccc2)n1Cc1ccccn1` [Compound 39, (R)-N-(1-(5-benzyl-4-(pyridin-2-ylmethyl)-4H-1,2,4-triazol-3-yl)-2-(1H-indol-3-yl)ethyl)-2-amino-2-methylpropanamide], the “IC50 of QRFP-26 (inhibition of isoproterenol-induced lipolysis), shifted in presence of compound” value in experiment [1] (compound at 10^−7 M) worked out at 6.9 nM; in experiment [1] (compound at 10^−8 M), 6.6 nM; in experiment [1] (compound at 10^−9 M) it was 5.6 nM. Also, the “effect on the inhibitory effect of QRFP on isoproterenol-induced lipolysis” value in experiment [1] is listed as “non-competitive antagonist effect”.
On to `CC(C)CC(N(C)C)C1(c2ccc(Cl)cc2)CCC1` (stereo not drawn) [Sibutramine, 1-(4-chlorophenyl)-N,N-dimethyl-alpha-(2-methylpropyl)-cyclobutane-methanamine], for which the change in vivo at 0.6 µmol/mouse is -63% with male C57BL/6J mice [3] (setting [6]), -66% in the experiment with male C57BL/6J mice [3] (setting [7]), -46% with male C57BL/6J mice [3] (setting [8]) and -21% with male C57BL/6J mice [3] (setting [9]).
In the case of `COc1ccc(Cn2c(CCc3ccccc3)nnc2[C@@H](Cc2c[nH]c3ccccc23)NC(=O)CN)cc1` [Compound 50, (R)-N-(1-(4-(4-methoxybenzyl)-5-phenethyl-4H-1,2,4-triazol-3-yl)-2-(1H-indol-3-yl)ethyl)-2-aminoacetamide], in experiment [2] (1.5 mg/kg per day s.c.), the Fat mass is recorded as 7.6 g, the Food efficiency was found to be 1.88 mg/kJ, the Lean mass is reported as 21.3 g and the “Σ Fat depots” value turned out to be 1101 mg. In experiment [2] (1.5 mg/kg per day s.c.), this compound displayed a Body weight gain of 1.61 g, a Cumulative food intake of 852 kJ, a Glucose of 15.6 mmol/L and an Insulin of 66.3 pmol/L. In addition, the “body weight gain (in words)” value in experiment [2] (setting [5]) is “significantly decreased”. Moreover, in experiment [2] (6.0 mg/kg per day s.c.), the Fat mass worked out at 8.2 g, the Food efficiency amounted to 1.77 mg/kJ, the Lean mass came to 20.4 g and the “Σ Fat depots” value is 1192 mg. In experiment [2] (6.0 mg/kg per day s.c.), this compound came in with a Body weight gain of 1.44 g, a Cumulative food intake of 813 kJ, a Glucose of 15.2 mmol/L and an Insulin of 64.8 pmol/L. Further, the “size of the fat depots (in words)” value in experiment [2] (24 mg/kg per day) is on record as “reduced”. Besides, in experiment [2] (24 mg/kg per day s.c.), the Fat mass came to 6.3 g, the Food efficiency was -0.05 mg/kJ, the Lean mass worked out at 20.6 g and the “Σ Fat depots” value was 902 mg. Moreover, in experiment [2] (24 mg/kg per day s.c.), the Body weight gain is -0.04 g, the Cumulative food intake was 801 kJ, the Glucose came to 15.4 mmol/L and the Insulin was determined as 60.3 pmol/L. In the experiment with male C57BL/6J mice [4] (setting [6]), the change in vivo at 2 µmol/mouse was -54%. In addition, the change in vivo at 2 µmol/mouse with male C57BL/6J mice [4] (setting [7]) was -44%. Also, the change in vivo at 2 µmol/mouse in the experiment with male C57BL/6J mice [4] (setting [8]) is -44%. Moreover, in the experiment on male C57BL/6J mice [4] (setting [9]), the change in vivo at 2 µmol/mouse is -28%.
